Where two headings read alike, the source gives them in different places.
Experiments:
[1] = target: T1, human dopamine D1 receptor (Homo sapiens, UniProt P21728); assay: Radioligand binding at human dopamine D1; conditions: for Ki: read-out: pKi D1 (converted)
T1 construct: expressed in transfected cells
Method: Other Dopamine receptors were prepared by known methods. (D1 : Dearry et al., Nature, 347, 72, (1990), deposited with the European Molecular Biological Laboratory (EMBL) Genbank as X55760; D3 : Sokoloff, P. et al., Nature, 347, 146 (1990), deposited with the European Molecular Biological Laboratory (EMBL) Genbank as X53944; D5 : Sunahara, R. K., et al., Nature, 350, 614 (1991), deposited with EMBL Genbank as X58454-HU HD 5DR).

human 5-HT1Dα receptor = target: T2, human 5-HT1Dα receptor (Homo sapiens, UniProt P28221); assay: Radioligand binding at human 5-HT1Dα
T2 construct: expressed in transfected cells; host or cells: LM(tk-) clonal cell line, designated Ltk-8-30-84, ATCC CRL 10421 (cell lysates)
Method: (§1) Human Serotonin Receptors
(§2) 5-HT1Dα, 5-HT1Dβ, 5-HT1E, 5-HT1F, and 5-HT7 Receptors: The cell lysates of LM(tk-) clonal cell line stably transfected with the genes encoding each of these 5-HT receptor-subtypes were prepared as described above. The cell line for the 5-HT1Dαreceptor, designated as Ltk-8-30-84, was deposited on Apr. […] The cell for the 5-HT1Dβ receptor, designated as Ltk-11, was deposited on Apr. […] The cell line for the 5-HT1E receptor, designated 5-HT1E -7, was deposited on Nov. […] The cell line for the 5-HT1F receptor, designated L-5-HT1F, was deposited on Dec. […] The cell line for the 5-HT7 receptor, designated as L-5-HT-4B, was deposited on Oct. […] These preparations were suspended in 50 mM Tris-HCl buffer (pH 7.4 at 37° C.) containing 10 mM MgCl2, 0.2 mM EDTA, 10 μM pargyline, and 0.1% ascorbate. […] Nonspecific binding was determined in the presence of 10 μM serotonin. The bound radioligand was separated by filtration through GF/B filters using a cell harvester.

human 5-HT1F receptor = target: T3, human 5-HT1F receptor (Homo sapiens, UniProt P30939); assay: Radioligand binding at human 5-HT1F
T3 construct: expressed in transfected cells; host or cells: LM(tk-) clonal cell line, designated L-5-HT1F, ATCC CRL 10957 (cell lysates)
T3 sequence (P30939 1-366): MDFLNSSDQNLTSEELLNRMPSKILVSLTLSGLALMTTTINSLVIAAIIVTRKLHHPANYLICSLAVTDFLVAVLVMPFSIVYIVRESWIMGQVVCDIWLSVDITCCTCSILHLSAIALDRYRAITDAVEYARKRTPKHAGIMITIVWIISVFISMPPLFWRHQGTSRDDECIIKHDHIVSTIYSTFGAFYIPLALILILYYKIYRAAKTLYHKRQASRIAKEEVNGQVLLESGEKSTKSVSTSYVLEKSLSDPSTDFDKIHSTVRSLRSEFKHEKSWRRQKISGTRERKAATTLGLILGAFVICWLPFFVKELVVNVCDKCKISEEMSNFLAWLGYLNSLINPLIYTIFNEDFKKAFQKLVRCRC
Method: as §1, §2

human α2A adrenoceptor [2] = target: T4, human α2A adrenoceptor (Homo sapiens, UniProt P08913); assay: Inhibition of forskolin stimulated adenylyl cyclase, α2A; assay type: cell-based; conditions: for Emax: read-out: intrinsic activity (i.a.) α2A
T4 construct: expressed in transfected cells; host or cells: LM(tk-)
T4 sequence (P08913 1-465): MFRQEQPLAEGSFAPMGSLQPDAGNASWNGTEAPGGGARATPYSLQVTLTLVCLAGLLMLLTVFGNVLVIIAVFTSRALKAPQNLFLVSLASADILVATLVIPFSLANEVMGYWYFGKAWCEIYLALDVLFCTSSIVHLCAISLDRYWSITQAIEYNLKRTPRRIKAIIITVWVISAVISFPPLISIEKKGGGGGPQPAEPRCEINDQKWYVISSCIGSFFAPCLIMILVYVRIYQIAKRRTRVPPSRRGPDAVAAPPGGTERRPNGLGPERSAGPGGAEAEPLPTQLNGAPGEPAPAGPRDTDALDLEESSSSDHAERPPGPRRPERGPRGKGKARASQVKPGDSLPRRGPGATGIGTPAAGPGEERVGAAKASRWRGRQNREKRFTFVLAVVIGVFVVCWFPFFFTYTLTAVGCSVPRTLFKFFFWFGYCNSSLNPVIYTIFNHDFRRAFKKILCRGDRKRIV
Method: α2 -Adrenoceptor-Mediated Inhibition of Forskolin Stimulated Adenylyl Cyclase
The agonist activity of test compounds was assayed by measuring their ability to inhibit adenylyl cyclase in cells stably transfected with each of the three cloned human α2 -adrenoceptors. LM(tk-) cells expressing the α2A - or the α2C -, as well as Y1 cells expressing the α2B -adrenoceptor were used. […] The formation of cyclic AMP was measured in cultures incubated with DMEM containing 1 mM theophylline. […] The data from concentration-response curves was fitted to a four-parameter logistic equation, by non-linear regression analysis, to determine the pEC50 and intrinsic activity.

human α2A adrenoceptor [3] = target: T4, human α2A adrenoceptor; assay: Radioligand binding ([3H]rauwolscine) at cloned human α2A
Method: (§3) To determine the affinity of compounds at the α2 receptors, LM(tk-) cell lines stably transfected with the genes encoding the α2A, α2B, and α2C receptors were used. Cell lysates were prepared as described above (see Radioligand Binding Assays), and suspended in 25 mM glycylglycine buffer (pH 7.6 at room temperature). Equilibrium competition binding assays were performed using [^3 H] rauwolscine (0.5 nM), and nonspecific binding was determined by incubation with 10 μM phentolamine. The bound radioligand was separated by filtration through GF/B filters using a cell harvester.

human α2B adrenoceptor = target: T5, human α2B adrenoceptor (Homo sapiens, UniProt P18089); assay: Radioligand binding ([3H]rauwolscine) at cloned human α2B; parameters: expressed in transfected cells
T5 sequence (P18089 1-450): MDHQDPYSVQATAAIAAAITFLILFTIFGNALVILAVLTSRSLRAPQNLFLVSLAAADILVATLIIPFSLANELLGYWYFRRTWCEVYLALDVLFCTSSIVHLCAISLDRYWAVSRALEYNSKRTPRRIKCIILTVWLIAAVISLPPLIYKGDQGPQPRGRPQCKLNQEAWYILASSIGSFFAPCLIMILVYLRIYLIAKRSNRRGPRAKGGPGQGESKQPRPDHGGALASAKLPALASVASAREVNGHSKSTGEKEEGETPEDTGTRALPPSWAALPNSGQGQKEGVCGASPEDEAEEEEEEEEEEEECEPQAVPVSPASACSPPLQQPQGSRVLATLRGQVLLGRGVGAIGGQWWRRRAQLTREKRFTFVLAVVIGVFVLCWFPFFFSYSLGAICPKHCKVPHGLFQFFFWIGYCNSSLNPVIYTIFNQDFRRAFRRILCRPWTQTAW
Method: as §3

[4] = Table 3, agonists, read-out: pKi α2A (converted)

T1 sequence (P21728 whole entry): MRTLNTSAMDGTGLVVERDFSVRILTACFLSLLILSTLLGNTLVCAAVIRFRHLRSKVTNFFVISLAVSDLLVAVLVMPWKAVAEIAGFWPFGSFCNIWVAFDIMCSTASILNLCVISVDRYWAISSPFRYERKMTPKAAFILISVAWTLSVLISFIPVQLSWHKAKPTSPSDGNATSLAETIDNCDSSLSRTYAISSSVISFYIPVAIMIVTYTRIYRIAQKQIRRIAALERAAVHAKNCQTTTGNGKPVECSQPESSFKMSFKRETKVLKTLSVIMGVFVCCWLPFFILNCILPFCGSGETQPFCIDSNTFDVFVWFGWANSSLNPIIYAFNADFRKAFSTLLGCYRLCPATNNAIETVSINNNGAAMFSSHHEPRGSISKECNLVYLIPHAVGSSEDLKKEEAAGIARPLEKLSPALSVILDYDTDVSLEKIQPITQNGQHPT
T2 sequence (P28221 whole entry): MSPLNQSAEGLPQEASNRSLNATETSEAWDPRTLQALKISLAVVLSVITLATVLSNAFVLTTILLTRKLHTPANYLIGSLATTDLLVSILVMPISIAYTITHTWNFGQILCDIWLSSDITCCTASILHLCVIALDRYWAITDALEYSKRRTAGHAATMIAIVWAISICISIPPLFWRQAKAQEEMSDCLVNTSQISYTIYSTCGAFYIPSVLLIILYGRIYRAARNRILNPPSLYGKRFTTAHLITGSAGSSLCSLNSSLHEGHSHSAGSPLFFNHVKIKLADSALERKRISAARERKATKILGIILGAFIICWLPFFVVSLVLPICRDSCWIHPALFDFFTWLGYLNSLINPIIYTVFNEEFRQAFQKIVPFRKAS

SMILES | Emax (human α2A adrenoceptor [2]) [%] | Ki [1] [nM] | Ki (human α2B adrenoceptor) [nM] | EC50 (human α2A adrenoceptor [2]) [nM] | Ki (human α2A adrenoceptor [3]; [4]) [nM] | other results
CNCCc1ccc(O)c(NS(C)(=O)=O)c1 [SK&F 102652] | 0 | – | – | – | – | pKi D1 [1]: 5.0; pKi 5-HT1Dα (human 5-HT1Dα receptor; [3H]serotonin): 5.9; pKi 5-HT1F (human 5-HT1F receptor; [3H]serotonin): 5.3; pEC50 α2A (human α2A adrenoceptor [2]; agonist, inhibition of forskolin stimulated adenylyl cyclase): < 4.0; pKi α2A (human α2A adrenoceptor [3]; Table 3, agonists): 6.4
COc1ccc(SC)c2c1C[C@@H]1[C@@H](C2)OCCN1C (relative stereo) [SDZ NVI-085, (±)-trans-4-Methyl-6-methoxy-9-thiomethoxy-3,4,4a, 5,10,10a-hexahydro-2H-naphtho[2,3-b][1,4]oxazine] | 0 | 7940 | 63.1 | – | – | Ki (human 5-HT1Dα receptor): 12.6 nM; Ki (human 5-HT1F receptor): 100 nM; EC50 (human α2A adrenoceptor [2]; agonist, inhibition of forskolin stimulated adenylyl cyclase, read-out: pEC50 α2A (converted)): > 100000 nM; Ki (human α2A adrenoceptor [3]): 50.1 nM
COc1ccc(OC)c(C(O)CN)c1 (racemic) [ST-1059, (±)-2-Amino-1-(2, 5 dimethoxyphenyl) ethanol] | 20 | – | 1580 | 2510 | 2000 | –
CS(=O)(=O)Nc1c(O)ccc2c1CCCC2C1=NCCN1 (racemic) [Compound A-61603, (±)-N-[5-(4,5-Dihydro-1H-imidazol-2-yl)-2-hydroxy-5,6,7,8-tetra-hydronaphthalen-1-yl]methanesulfonamide] | – | 20000 | – | – | – | Ki (human 5-HT1Dα receptor; [3H]serotonin, read-out: pKi 5-HT1Dα (converted)): 2510 nM; Ki (human α2B adrenoceptor; Table 3, agonists, read-out: pKi α2B (converted)): 316 nM; Ki (human 5-HT1F receptor; [3H]serotonin, read-out: pKi 5-HT1F (converted)): 5010 nM
CN[C@@H](C)[C@H](O)c1ccccc1 [(-)-ephedrine] | 30 | – | 2510 | 251 | 794 | –
C[C@H](N)[C@H](O)c1ccccc1 [(-)-norephedrine] | 50 | – | 251 | 7.94 | 501 | –
